Source: article PMC5278949 (The Journal of organic chemistry, 2016)

Biological target: kappa opioid receptor (KOR) (Homo sapiens, UniProt P41145)
Assay: GTPγS assay, antagonism of U69, […], concentration-response
Type: biochemical

Chain of kappa opioid receptor (KOR) (P41145 whole entry): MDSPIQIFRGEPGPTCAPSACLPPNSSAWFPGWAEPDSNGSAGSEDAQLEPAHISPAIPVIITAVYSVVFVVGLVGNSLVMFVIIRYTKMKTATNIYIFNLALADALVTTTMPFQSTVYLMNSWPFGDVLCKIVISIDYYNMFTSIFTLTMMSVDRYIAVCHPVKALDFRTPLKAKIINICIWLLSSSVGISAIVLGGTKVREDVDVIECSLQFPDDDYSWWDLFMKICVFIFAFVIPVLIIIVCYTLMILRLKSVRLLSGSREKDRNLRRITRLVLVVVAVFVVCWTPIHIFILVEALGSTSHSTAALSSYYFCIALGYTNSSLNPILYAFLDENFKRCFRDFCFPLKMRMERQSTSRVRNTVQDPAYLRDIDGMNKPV

Row | SMILES | IC50 [µM]
1 | COc1ccc(N2CCN(CCCNC(=O)CN3C(=O)C4CCCCN4c4cc(C)cnc43)CC2)cc1 (racemic) [compound 28, N-(3-(4-(4-Methoxyphenyl)piperazin-1-yl)propyl)-2-(2-methyl-6-oxo-6,6a,7,8,9,10-hexahydro-5H-dipyrido[1,2-a:2′,3′-e]pyrazin-5-yl)acetamide] | 0.906
2 | COc1ccc(N2CCN(CCCNC(=O)CN3C(=O)[C@@H]4CCCN4c4c(C)ccnc43)CC2)cc1 [compound 26, (S)-N-(3-(4-(4-Methoxyphenyl)piperazin-1-yl)propyl)-2-(1-methyl-6-oxo-6a,7,8,9-tetrahydropyrido[2,3-e]pyrrolo[1,2-a]pyrazin-5(6H)-yl)acetamide] | 2.82
3 | COc1ccc(N2CCN(CCCNC(=O)CN3C(=O)[C@@H]4CCCN4c4cc(C)cnc43)CC2)cc1 [compound 27, (S)-N-(3-(4-(4-Methoxyphenyl)piperazin-1-yl)propyl)-2-(2-methyl-6-oxo-6a,7,8,9-tetrahydropyrido[2,3-e]pyrrolo[1,2-a]pyrazin-5(6H)-yl)acetamide] | 2.62
4 | COc1ccc(N2CCN(CCCNC(=O)CN3C(=O)[C@H](CC(C)C)Nc4cc(C)cnc43)CC2)cc1 [compound 29, (S)-2-(2-Isobutyl-7-methyl-3-oxo-2,3-dihydropyrido[2,3-b]-pyrazin-4(1H)-yl)-N-(3-(4-(4-methoxyphenyl)piperazin-1-yl)propyl)-acetamide] | 0.433
